Measured values as given in patent US12558366B2, “Bacterial DNA gyrase inhibitors and methods of use thereof” (THE FLORIDA INTERNATIONAL UNIVERSITY BOARD OF TRUSTEES, priority 2021, dated 2026).
≈ marks a conversion by molar mass, not a printed value. Where two headings read alike, the source gives them in different places.

What was measured:
E. coli DNA gyrase [1] = target: T1, E. coli DNA gyrase (Escherichia coli, UniProt P0AES4+P0AES6); assay: E. coli DNA gyrase inhibition (agarose gel-based and/or SDFQ-based, not specified per value); assay type: biochemical
T1 sequence (P0AES4 whole entry, one chain of several): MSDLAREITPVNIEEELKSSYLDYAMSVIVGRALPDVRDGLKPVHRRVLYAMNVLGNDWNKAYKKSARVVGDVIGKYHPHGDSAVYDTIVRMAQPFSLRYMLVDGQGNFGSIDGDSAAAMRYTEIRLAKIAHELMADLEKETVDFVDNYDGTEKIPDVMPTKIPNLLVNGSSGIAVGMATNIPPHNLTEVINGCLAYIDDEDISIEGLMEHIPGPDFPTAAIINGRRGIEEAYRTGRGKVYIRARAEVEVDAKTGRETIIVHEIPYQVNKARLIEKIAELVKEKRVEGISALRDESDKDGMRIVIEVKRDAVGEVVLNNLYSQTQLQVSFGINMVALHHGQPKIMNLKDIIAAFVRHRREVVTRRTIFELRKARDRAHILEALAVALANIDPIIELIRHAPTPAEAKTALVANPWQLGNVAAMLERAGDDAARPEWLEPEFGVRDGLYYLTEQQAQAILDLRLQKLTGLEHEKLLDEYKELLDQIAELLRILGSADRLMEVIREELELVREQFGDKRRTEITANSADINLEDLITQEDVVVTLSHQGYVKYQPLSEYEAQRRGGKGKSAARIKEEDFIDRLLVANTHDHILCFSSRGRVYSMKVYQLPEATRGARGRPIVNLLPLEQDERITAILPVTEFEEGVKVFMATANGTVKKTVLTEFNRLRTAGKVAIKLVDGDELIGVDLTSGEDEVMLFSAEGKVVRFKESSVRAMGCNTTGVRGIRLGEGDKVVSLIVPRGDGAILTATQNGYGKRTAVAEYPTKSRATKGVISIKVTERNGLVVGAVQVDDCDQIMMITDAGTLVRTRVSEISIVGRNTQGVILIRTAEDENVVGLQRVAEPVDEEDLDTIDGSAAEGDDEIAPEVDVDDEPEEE

MRSA (ATCC BAA44) = assay: microbe, parasite or virus in culture; assay type: cell-based, S. aureus
Protocol: (§1) Antibacterial minimum inhibitory concentrations (MICs) were obtained from three independent experiments using broth microdilution methods in 96-well plates according to Clinical and Laboratory Standards Institute guidelines. Cells were culture from singles colonies in MHIIB medium for 24 h at 37° C. in agitation (200 RPM). The cultures were then diluted using the same media to reach an OD600 of 0.1. Then, 50 μL of the diluted cultures were added to the plates holding 50 μL of serially diluted compounds in MHIIB. The plates were incubated at 37° C. for 20 h. The starting inoculum was fixated to 10^5 colony-forming units per ml.

S. aureus (ATCC 14775) = assay: Minimum inhibitory concentration, S. aureus; assay type: cell-based
Protocol: as §1

Mtb = Mtb inhibition (antibacterial activity); assay type: cell-based, Mycobacterium tuberculosis; set-up: % Mtb inhibition: concentration or dose not given beside the values; conditions: for % Mtb inhibition: Table 5
B. subtilis (ATCC 6633) = assay: Minimum inhibitory concentration, B. subtilis; assay type: cell-based; conditions: Bacillus subtilis, ATCC6633; Tables 3a-3c
Protocol: as §1

E. coli imp = assay: microbe, parasite or virus in culture; assay type: cell-based; conditions: Escherichia coli
Protocol: as §1

E. coli DNA gyrase [2] = target: T1, E. coli DNA gyrase; assay: Agarose gel-based DNA gyrase inhibition assays; assay type: biochemical
Protocol: 100 ng of DNA gyrase was used to supercoil the rx pAB1 in the presence of different concentrations of a gyrase inhibitor. […] Samples were analyzed by electrophoresis in 1% w/v agarose gels followed by ethidium bromide staining and photographed under UV light.

E. coli (ATCC 25922) = assay: Minimum inhibitory concentration, E. coli; assay type: cell-based; conditions: Escherichia coli, ATCC25922, read-out: Minimum Inhibitory Concentration E. coli
Protocol: as §1

DNA = DNA binding, intercalation and photo-induced crosslinking
[3] = Table 2 values, read-out: IC50 ( ≤15 μM) IC50
[4] = read-out: Minimum Inhibitory Concentration E. coli imp

`Cc1cc(C)c2c(c1)C(=NNc1ccc(C(=O)O)cc1)C(O)=N2` [Compound 9, 4-[2-(5,7-Dimethyl-2-oxoindol-3-yl)hydrazinyl]benzoic acid] was tested, and the IC50 (E. coli DNA gyrase [1]; [3]) was 1.69 µM, the “growth inhibition of MRSA” value (MRSA (ATCC BAA44)) was “strongly inhibited the growth” and the “growth inhibition of S. aureus” value (S. aureus (ATCC 14775)) was “strongly inhibited the growth”.
For `CSc1nc(SCC(=O)O)c2sc3nc(-c4ccccc4)c4c(c3c2n1)CCC4` [Compound 19], the “activity against Mtb” value (Mtb) was “Mtb active hits” and the IC50 (E. coli DNA gyrase [1]; [3]) was 3.55 µM.
In the case of `Cc1c(CCC(=O)O)c(=O)oc2cc3occ(-c4ccc(Cl)cc4)c3cc12` [Compound 25], the MIC (B. subtilis (ATCC 6633)) is reported as 25 µM (≈ 9.57 µg/mL), the “% Mtb inhibition” value (Mtb) is reported as 0.8% and the IC50 (E. coli DNA gyrase [1]; [3]) is reported as 10.6 µM. For the same compound, the MIC (E. coli imp; [4]) was 25 µM.
`O=C(O)CCN1C(=O)/C(=C/c2ccc(-c3nc4ccccc4s3)o2)SC1=S` [Compound 27] gave an IC50 (E. coli DNA gyrase [1]; [3]) of 1.74 µM.
`O=C(O)CCCCCN1C(=O)/C(=C\c2ccc(-c3ccc(Cl)cc3)o2)SC1=S` [Compound 36] gave an IC50 (E. coli DNA gyrase [1]; [3]) of 7.42 µM.
Compound `CC(C)(CS(=O)(=O)[O-])NC(=O)CC[N+](C)(C)CCO` [Compound 42] has an IC50 (E. coli DNA gyrase [1]; [3]) of 2.18 µM.
With `O=C(O)c1cccc(-c2ccc(/C=c3/sc4nc5ccccc5n4c3=O)o2)c1` [Compound 47] the “activity against Mtb” value (Mtb) was “Mtb active hits” and the IC50 (E. coli DNA gyrase [1]; [3]) was 1.87 µM.
In the case of `COc1cc2ccccc2cc1C(=O)NC(=S)Nc1ccc(C(=O)O)cc1` [Compound 72], the IC50 (E. coli DNA gyrase [1]; [3]) is reported as 12.4 µM.
In the case of `Cc1cc(C)c2sc(NC(=O)C3CC3)nc2c1` [Compound 73], the IC50 (E. coli DNA gyrase [1]; [3]) is reported as 7.86 µM.
`Cc1c2cc(O)c(=O)cc-2oc2cc(O)c(O)cc12` [Compound 75] was tested, and the IC50 (E. coli DNA gyrase [1]; [3]) was 5.28 µM.
`CNC(=O)[C@H]1O[C@@H](n2cnc3c(NCc4cccc(I)c4)nc(Cl)nc32)[C@H](O)[C@@H]1O` [Compound 76] gave an IC50 (E. coli DNA gyrase [1]; [3]) of 2.53 µM.
For `O=C(Nc1cccc(C2=NCCN2)c1)Nc1cccc(C2=NCCN2)c1` [Compound 79], the “inhibition of E. coli DNA gyrase activities” value (E. coli DNA gyrase [2]; 200 μM of compounds) was “completely inhibited” and the MIC (E. coli imp; [4]) was 50 µM.
In the case of `Cc1cccc2c1N=C(O)C2=NNc1ccc(S(C)(=O)=O)cc1` [Compound 109], the “inhibition of E. coli DNA gyrase activities” value (E. coli DNA gyrase [2]; 50 μM of compounds) is reported as “completely inhibited”.
In the case of `O=C1Nc2ccc(Br)cc2C1=NNc1ccc(C(=O)O)cc1` [Compound 111], the MIC (B. subtilis (ATCC 6633)) is reported as 100 µM (≈ 36 µg/mL) and the “inhibition of E. coli DNA gyrase activities” value (E. coli DNA gyrase [2]; 50 μM of compounds) is reported as “completely inhibited”.
In the case of `Cc1c(CCC(=O)O)c(=O)oc2c(C)c3occ(-c4ccccc4)c3cc12` [Compound 121], the “% Mtb inhibition” value (Mtb) is reported as 36.7%, the “inhibition of E. coli DNA gyrase activities” value (E. coli DNA gyrase [2]; 50 μM of compounds) is reported as “completely inhibited” and the MIC (E. coli (ATCC 25922)) is reported as greater than 200 µM. It also gave an MIC (E. coli imp; [4]) of 100 µM.
With `Cc1c(CCC(=O)O)c(=O)oc2c(C)c3occ(-c4ccc(F)cc4)c3cc12` [Compound 123] the “% Mtb inhibition” value (Mtb) was 31.8%, the MIC (E. coli (ATCC 25922)) was greater than 200 µM and the MIC (E. coli imp; [4]) was greater than 200 µM.
In the case of `Cc1c(CCC(=O)O)c(=O)oc2c(C)c3occ(-c4ccc(N5CCCC5)cc4)c3cc12` [Compound 125], the “% Mtb inhibition” value (Mtb) is reported as 10.2%, the “growth inhibition of MRSA” value (MRSA (ATCC BAA44)) is reported as “did not inhibit the growth” and the “growth inhibition of S. aureus” value (S. aureus (ATCC 14775)) is reported as “did not inhibit the growth”.
`O=C(O)c1ccc(/N=N/C2C(O)=Nc3ccc(F)cc32)cc1` (stereo not shown) [Compound 127] was tested, and the “activity against Mtb” value (Mtb) was “Mtb active hits”.
`Cc1cccc2c1N=C(O)C2/N=N/c1ccc(C(=O)O)cc1` (stereo not shown) [Compound 128] was tested, and the “activity against Mtb” value (Mtb) was “Mtb active hits”.
`Cc1cc(NN=Cc2ccc([N+](=O)[O-])o2)nc2ccccc12` [Compound 134] gave an MIC (MRSA (ATCC BAA44); Staphylococcus aureus, read-out: Minimum Inhibitory Concentration S. aureus MRSA) of 200 µM (≈ 59.3 µg/mL) and an MIC (S. aureus (ATCC 14775); Staphylococcus aureus, ATCC14775, Tables 3a-3c, read-out: Minimum Inhibitory Concentration S. aureus) of 200 µM (≈ 59.3 µg/mL).
For `O=C(O)C(Cc1ccccc1)N1C(=O)/C(=C\C=C\c2ccco2)SC1=S` (stereo not shown) [Compound 157], the IC50 (E. coli DNA gyrase [1]; [3]) was 10 µM and the MIC (E. coli imp; [4]) was 100 µM.
`O=[N+]([O-])c1cc(/C=N/Nc2nc3ccccc3[nH]2)c(O)cc1O` [Compound 159] gave an IC50 (E. coli DNA gyrase [1]; [3]) of 6.25 µM.
`O=C(/C=C/c1ccco1)Nc1cccc2cccnc12` [Compound 164] gave an MIC (E. coli imp; [4]) of 100 µM.
Compound `N#C/C(=C\c1coc2ccc(O)cc2c1=O)C(=O)/N=c1\[nH]c2ccccc2s1` [Compound 165] has an IC50 (E. coli DNA gyrase [1]; [3]) of 6.25 µM.
`O=C(O)C(c1ccccc1)N1C(=O)/C(=C\c2ccc(-c3cccc(Cl)c3)o2)SC1=S` (stereo not shown) [Compound 176] was tested, and the IC50 (E. coli DNA gyrase [1]; [3]) was 2 µM.
For `COc1cc(/C=N/N=c2\[nH]c3ccccc3s2)cc([N+](=O)[O-])c1O` [Compound 178], the “activity against Mtb” value (Mtb) was “Mtb active hits” and the IC50 (E. coli DNA gyrase [1]; [3]) was 1.56 µM.
Work on `O=C(NN1C(=O)/C(=C\C=C\c2ccco2)SC1=S)c1ccccc1O` [Compound 180] yielded an MIC (E. coli imp; [4]) of 100 µM.
`O=C1/C(=C\c2ccc(O)c([N+](=O)[O-])c2)SC(=S)N1Cc1ccccc1` [Compound 192] was tested, and the IC50 (E. coli DNA gyrase [1]; [3]) was 8 µM.
`O=C1NC(=S)SC1=Cc1cc(Cl)cc(Cl)c1O` [Compound 207] was tested, and the “inhibition of E. coli DNA gyrase activities” value (E. coli DNA gyrase [2]; 50 μM of compounds) was “inhibited”, the “inhibition of E. coli DNA gyrase activities” value (E. coli DNA gyrase [2]; 200 μM of compounds) was “completely inhibited” and the IC50 (E. coli DNA gyrase [1]) was 50 to 200 µM.
With `NN=C1c2ccccc2C(=O)C1C(=O)C(c1ccccc1)c1ccccc1` (stereo not shown) [Compound 211] the “inhibition of E. coli DNA gyrase activities” value (E. coli DNA gyrase [2]; 50 μM of compounds) was “inhibited”, the “inhibition of E. coli DNA gyrase activities” value (E. coli DNA gyrase [2]; 200 μM of compounds) was “completely inhibited” and the IC50 (E. coli DNA gyrase [1]) was 50 to 200 µM.
For `Brc1ccc2c(c1)-c1ccccc1C1=NCCN12` [Compound 217], the DNA intercalator (DNA) was “DNA intercalators”.
`C[n+]1c(-c2ccc(C=NNC(=O)c3ccc(C(=O)NN=Cc4ccc(-c5cn6ccccc6[n+]5C)cc4)cc3)cc2)cn2ccccc21` [Compound 229] gave an IC50 (E. coli DNA gyrase [1]) of 25 to 50 µM.
For `CN(C)c1ccc(/C=c2\c3ccccc3n3c2cc(-c2ccccc2)[n+]3C)cc1` [Compound 236], the DNA intercalator (DNA) was “DNA intercalator”.
`COc1ccc2c(c1)/c(=C\c1ccc(N(C)C)cc1)c1cc(-c3ccccc3)[n+](C)n12.O=S(=O)([O-])C(F)(F)F` [Compound 237] was tested, and the DNA intercalator (DNA) was “DNA intercalators”.
`CCOC(=O)c1cc2c(=Cc3ccc(N(C)C)cc3)c3ccccc3n2[n+]1C.O=S(=O)([O-])C(F)(F)F` [Compound 239] was tested, and the DNA intercalator (DNA) was “DNA intercalators”.
`COc1cccc2nc3c(C(=O)NCCN(C)C)cccc3cc12.Cl` [Compound 240] was tested, and the DNA intercalator (DNA) was “DNA intercalators”.
With `CN(C)CCNC(=O)c1cccc2nc3cccc(F)c3nc12.Cl` [Compound 241] the DNA intercalator (DNA) was “DNA intercalators”.
`Nc1ccc2cc3ccc(N)cc3nc2c1` [Compound 246] was tested, and the DNA intercalator (DNA) was “DNA intercalators”.
In the case of `Nc1c2ccccc2nc2ccccc12` [Compound 247], the DNA intercalator (DNA) is reported as “DNA intercalators”.
In the case of `CN1/C(=C/c2cc[n+](C)c3ccccc23)Sc2ccccc21.Cc1ccc(S(=O)(=O)[O-])cc1` [Compound 248], the DNA intercalator (DNA) is reported as “DNA intercalators”.
With `CN(C)c1ccc2cc3ccc(N(C)C)cc3nc2c1` [Compound 249] the DNA intercalator (DNA) was “DNA intercalators”.
`O=C1OC2(c3ccccc31)c1cc(I)c(O)c(I)c1Oc1c2cc(I)c(O)c1I` [Compound 253, Erythrosin B] showed an IC50 (E. coli DNA gyrase [1]; [3]) of 3.12 µM.
`CCOc1ccc2nc3cc(N)ccc3c(N)c2c1` [Compound 257] was tested, and the DNA intercalator (DNA) was “DNA intercalators”.
In the case of `CSC1SC2C(=O)N(C)C(C(C)C)C(=O)OCC(NC(=O)c3cnc4ccccc4n3)C(=O)NC(C)C(=O)N(C)C1C(=O)N(C)C(C(C)C)C(=O)OCC(NC(=O)c1cnc3ccccc3n1)C(=O)NC(C)C(=O)N2C` (stereo not shown) [Compound 258], the DNA intercalator (DNA) is reported as “DNA intercalators”.
In the case of `CN1C[C@H](CNC(=O)OCc2ccccc2)C[C@@H]2c3cccc4c3c(cn4C)C[C@H]21` [Metergoline, reference compound], the “inhibition of gyrase activities” value (E. coli DNA gyrase [2]; at 100 and 200 μM) is reported as “inhibits gyrase activities”.
With `CCCCCCCCOC(=O)c1cc(O)c(O)c(O)c1` [Octyl gallate] the MIC (E. coli imp; read-out: MIC (μg/ml) E. coli imp) was 14.1 µg/mL.
`O=c1ccc2cc3ccoc3cc2o1` [psoralen, reference compound] was tested, and the “inhibition of E. coli DNA gyrase activities” value (E. coli DNA gyrase [1]) was “not a gyrase inhibitor”.
For “mithramycin [Compound 225, reference compound]”, the “inhibition of E. coli DNA gyrase activities” value (E. coli DNA gyrase [2]; 50 μM of compounds) was “completely inhibited”, the “inhibition of E. coli DNA gyrase activities” value (E. coli DNA gyrase [2]; 200 μM of compounds) was “completely inhibited” and the “inhibition of E. coli DNA gyrase activities” value (E. coli DNA gyrase [1]) was “strongly inhibited”.
